Test results: patent publication US10130676B2, “Therapeutic peptides for cerebrovascular diseases” (Prime Bio-Drug Development Limited, priority 2015, dated 2018)
Ends that are not written are not given here.

Key:
PC12 cells [1] = experiment: PC12 cell survival upon exposure to L-glutamic acid (MTT); assay type: cell-based, rat; settings: 10 ug/ml for each peptide; 1 mM L-glutamic acid
Experimental: PC12 cells were obtained from the Chinese Academy of Medical Sciences, Beijing, China. To examine cell survival upon exposure to L-glutamic acid, PC12 cells were grown to confluence in 96 well plate in serum-free RPMI-1640. […] After 15-min incubation, medium was changed to serum-free RPMI-1640. After 24 h incubation, 100 μL MTT (final concentration 0.5 mg/ml) was added for additional 4 h incubation, and the cell survival was subsequently assessed by absorbance at 540 nm under a Fluostar microplate reader (BMG Germany).
(§1) Differences were considered significant at P<0.05.

PC12 cells [2] = experiment: PC12 cell survival under hypoglycemic, hypoxic or hypoglycemic-hypoxic conditions (MTT); settings: for protective effect on PC12 from cell death under hypoglycemic and hypoxic conditions: 10 ug/ml for each peptide, 24 h; for protective effect against cell death induced by hypoxia / protective effects against cytotoxicity induced by hypoxia or by (hypoglycemia+hypoglycemia): peptide used individually; for protective effects against cytotoxicity induced by hypoxia or by (hypoglycemia+hypoglycemia): conditions as printed
Experimental: PC12 cells were propagated and cultured as described above. For hypoglycemic condition, 125 μM Cobaltous Chloride (CoCl2, Sigma, USA) was added into the culture media when PC12 cells were in monolayer for further 24 h incubation as described. For induction of hypoglycemia, culture media was changed to glucose-free Eagle's medium when PC12 grew to monolayer for additional 24 h incubation. For hypoglycemic and hypoxic conditions, PC12 cells were cultured in glucose-free Eagle's media with addition of 125 μM CoCl2. After 24 h, cells were harvested and subject to MTT assay.
Data were expressed as mean±standard error (SE) and multiple comparisons were evaluated by the analysis of variance and Neuman-Keuls test. Differences were considered significant at P<0.05. Neurological deficit data were evaluated by the nonparametric Mann-Whitney test.

PC12 cells [3] = experiment: PC12 cell survival upon exposure to H2O2 (MTT); assay type: cell-based, rat; settings: 10 ug/ml for each peptide; 200 μM H2O2, 24 h
Experimental: To examine cell survival upon exposure to H2O2, PC12 cells were grown to confluence in 96 well plate and the medium was changed to serum-free medium containing 200 μM H2O2 (final volume 100 μl) for 24 h. […] After 24 h incubation, 100 μL MTT (final concentration 0.5 mg/ml) was added for additional 4 h incubation, and the cell survival was subsequently assessed by absorbance at 540 nm under a Fluostar microplate reader (BMG, Germany).
as §1

[4] = In vivo distribution of Cy5.5-conjugated peptides after i.v. injection (IVIS optical imaging); parameters: species or system C57B/L6 mice; settings: for fluorescent intensity detected in the brain: 15 and 30 minutes after injection (FIG. 12); for fluorescent intensity detected in the spinal cord: 30 and 60 minutes after injection (FIG. 13)
Source text: The C57B/L6 mice (6˜8 week-old, female) were purchased from National Laboratory Animal Center, Taiwan. For optical imaging, animals were anesthetized by 2% isoflurane gas mixed with oxygen and intravenous injection (i.v.) of Cy5.5-conjugated peptide 1 or Cy5.5-conjugated peptide 5 (35 nmole/per mouse). After administration the mice were placed prone or supine in a dark box and a photographic image was first acquired at low light (exposure time: 5 seconds). At indicated time points after administration of probes, fluorescent signals were obtained using a CCD camera thermoelectrically cooled to −70° C. (Xenogen—IVIS® Spectrum Imaging System, Xenogen Technology). The photon integration period was 1-2 sec.

[5] = Circular dichroism (CD) of the peptide in PBS; assay type: physicochemical; settings: 50 μM in PBS
Experimental: (§2) Peptide-5 was dissolved in series of solution with different pH value and stood for 3 days. Adequate amount of each resulting solution was analyzed by HPLC (Agilent 1100 series) using a Nucleodur Pyramid C18 column (250 mm×4.6 mm, 5 μm) and gradient elution (0 min: 0.1% TFA in H2O; 10 min: 0.1% TFA in MeOH; 15 min: 0.1% TFA in MeOH) with 0.2 mL/min flow. The signals were monitored by UV detector at 220 nm wavelength. The sample collected in the stability test was also analyzed by MALDI-TOF Mass (Bruker Daltonics, Autoflex III) with 2,5-dihydroxybenzoic acid (DHB) as matrix. Furthermore, the portion respond to the signal at 7.8 min were collected and subject to MALDI-MS analysis. Peptide-5 was also prepared 50 μM in PBS and recorded from circular dichroism (Jasco, J-810).

[6] = Stability test in solutions of different pH value (HPLC, MALDI-TOF); assay type: physicochemical; settings: pH 2.0 to 8.5, 3 days, HPLC UV 220 nm
Experimental: as §2

Substance	protective effect on L-glutamic-acid-treated PC12 cells (PC12 cells [1])	protective effect on PC12 from cell death under hypoglycemic and hypoxic conditions (PC12 cells [2])	protective effect against cell death induced by hypoxia (PC12 cells [2])	protective effects against cytotoxicity induced by hypoxia or by (hypoglycemia+hypoglycemia) (PC12 cells [2])	protective effect on H2O2-treated neural cells (cell survival) (PC12 cells [3])	fluorescent intensity detected in the brain [4]	fluorescent intensity detected in the spinal cord [4]	stability by CD (circular dichroism) [5]	stability in solution with various pH value [6]
DEAQETAVSSH-OH [Peptide 1]	a degree of protective effect	had the protective effect as well	some protective effect	no protective effects	a degree of protective effect	high fluorescent intensity	high fluorescent intensity		
DEAQETAVSSHEQD-OH [Peptide 5]	a degree of protective effect	had the protective effect as well	some protective effect	no protective effects	a degree of protective effect	high fluorescent intensity	high fluorescent intensity	extremely stable	stable, even in a very acidic environment
